Measured values taken from paper PMC8653149, “Cyclic Analogs of Desferrioxamine E Siderophore for ^68Ga Nuclear Imaging: Coordination Chemistry and Biological Activity in Staphylococcus aureus” (Inorganic Chemistry, 2021).
Entries after “also recorded” stand apart in the source; their conditions may differ. Read-outs that look alike come from different tables or passages of the source. Marks after values point to notes of the source that are not given here.

Tests used:
[1] = Ga(III) complex stability constants by Fe(III)–Ga(III) metal–metal competition, potentiometric and UV–vis pH-metric titrations; format: physicochemical
Description: The next step was to determine the coordination specificity of investigated ligands toward Ga(III) ions. This is a somewhat challenging task because it requires indirect methods since the investigated complexes started to form in a very acidic environment, where potentiometric measurements were not accurate owing to the error of the glass electrode,[55],[56] and gallium is spectroscopically silent in UV–vis. To bypass this inconvenience, we implemented metal–metal competition assays. After addition of a significant molar excess of Ga(III), the LMCT band of Fe(III)-FOXE analog complexes was almost fully silenced as Ga(III) replaced Fe(III) in its complexes (Figure S5). By implementing those spectral changes, we were able to calculate the stability constants of the Ga(III)-FOXE analog species present below or around pH 2, [GaHL]^+ (Table S8). Stability constants for the [GaL] species, present above pH 2, could be determined by potentiometric titrations for Ga(III)-FOX 2-2, 2-3, 2-4, and 3-5, with logβ of [GaHL]^+ fixed in the calculations (Table S8). For Ga(III)-FOX 2-5, we could not observe any deprotonation step using this methodology. To confirm this behavior, UV–vis titration of the Ga(III)-FOX 2-5 analog complex was performed in the 200–300 nm spectral range (Figure S6) corresponding to the hydroxamate groups’ protonation state.[57]−[59] […] Above pH 4, there were no significant changes in maxima localization or absorbance intensity. Above pH 9, absorbance started to rise again, which indicated complex dissociation. […] Overall, the data indicated a decreased stability of [GaL] species when decreasing or increasing the ring size of Ga(III)-FOX 2-5, as reflected by pKNHOH (Table S8). Implementing this full coordination specification of Ga(III)-FOX complexes, we were able to calculate speciation plots which are presented in Figure 1 for the most efficient analogs FOX 2-4 and FOX 2-5, given here as examples, and in Figure S7 for others.
Proposed biomimetic analogs of cyclic siderophore FOXE bind Fe(III) ions starting from pH around 0, and the complexation is essentially complete far below or around pH of 2. Therefore, the stability constants of the first species formed in solution were determined from the spectrophotometric pH-dependent batch titrations carried out in the pH range of around 0.1–2 (Figure S3), by following the changes in the intense LMCT band of the metal complex. These values were further used as constant values in spectrophotometric or potentiometric titrations carried out in the pH range from 2 to 11 (Figure S3) to get the overall stability constants, logβFeL (Table S5). Since Ga(III)-FOX complexes present similar coordination properties, the first species start to form below pH 2 as well. However, in this case, we have used indirect methods to determine stability constants for Ga(III)-FOXE analogs and the Ga(III) complex with native FOXE, as Ga(III) complexes are spectroscopically silent in the UV–vis region. Metal–metal competition titrations were carried out at pH 1.6 for FOX 2-5 and FOX 2-4 and at pH 2 for the rest of the analogs and the native compound. The intense LMCT band of the Fe(III) complex was silenced after addition of a fixed volume of Ga(III) ions (Figure S5).
Potentiometric titrations were performed using an automatic titrator system Titrando 905 (Metrohm) equipped with a 800 Dosino dosing unit and a microburet with a volume of 2 mL. A combined glass electrode was calibrated each day for hydrogen ion concentration by 0.1 M HClO4 with CO2-free 0.1 M NaOH solutions. A stream of high purity grade argon, presaturated with water vapor, passed over the surface of the solution cell, filled with 3 mL of the studied solution. For each system, a minimum of four independent titrations was performed. […]

[2] = cited from earlier work
[3] = set-up: method as in PMID 11673947; conditions: cited from earlier work
[4] = set-up: method as in Ref 3 (supplement); conditions: ref Ref 3 (supplement); cited from earlier work
[5] = cited from earlier work; remark: listed apart in the source
[6] = Water solubility of the ligands; format: physicochemical; conditions: H2O and H2O/DMSO 70/30 w/w mixture; concentrations used in assays
Description: Elaborated solution thermodynamic studies combining several methods were performed in order to investigate those properties. Five FOXE analogs were water soluble in at least 1 × 10^–3 M concentration. […] Major results of physicochemical analysis for analogs characterized by most desirable properties are summarized below.

[7] = Distribution coefficient (logD) of ^68Ga-labeled ligands between octanol and PBS

Compound: O=C1CCC(=O)N(O)CCCCCNC(=O)CCC(=O)N(O)CCCCCNC(=O)CCC(=O)N(O)CCCCCN1 [FOXE, desferrioxamine E]
- logβ[GaL] ([1]; UV-Vis (metal–metal competition) titrations, [L] = 1·10^-4 M, M:L 1:1, T = 25°C, I = 0.1 M NaClO4): 29.79 (1)
- pGa(III) ([1]; calculated, pH 7.4): 25.2
- logβGa(III)L ([1]; potentiometric [L] = 1 × 10^–3 M and UV–vis 5 × 10^–5 M, M:L 1:1, T = 25 °C, I = 0.1 M NaClO4): 29.79(1)
- pFe(III) [2]: 27.3 ^c
- E1/2 vs NHE [3]: –477 ^d mv
- logβFe(II) [3]: 12.1 ^d
- protonation constant logβ, H2L + H+ ↔ H3L [4]: 27.94
- protonation constant logβ, HL + H+ ↔ H2L [4]: 19.31
- protonation constant logβ, L + H+ ↔ HL [4]: 9.89

Compound: transferrin: strong iron-binding ligand present in living organisms, literature comparator for pM
- pFe(III) [2]: 25.6 ^h
- pGa(III) [5]: 20.3 ^i

Compound: CC(=O)N(O)CCCCCNC(=O)CCC(=O)N(O)CCCCCNC(=O)CCC(=O)N(O)CCCCCN [DFOB]
- logβFe(III)L [2]: 31.10 ^g
- pFe(III) [2]: 26.3 ^f
- logβGa(III)L [5]: 27.56 ^g
- pGa(III) [5]: 21.6 ^g

Compound: O=C1CCCCCCN(O)C(=O)CCNC(=O)CCCCCCN(O)C(=O)CCNC(=O)CCCCCCN(O)C(=O)CCN1 [FOX 2-6]
- solubility [6]: not water soluble in concentrations used during our assays; also recorded: not soluble in H2O nor in a H2O/DMSO 70/30 w/w mixture
- logD at 20 min [7]: -0.58
